In patent US20080300317A1 (Chevron U.S.A. Inc., priority 2007, published 2008):
Where two headings read alike, the source gives them in different places.

Experiments:
[1] = test system: influenza A/PR/8/34 (H1N1); test: microbe, parasite or virus in culture; type: cell-based, influenza A virus
[2] = test system: influenza B/GL/1739/54; test: Anti-viral EC50 experiment, survival of virus-infected Vero cells; type: cell-based, influenza B virus; settings: for EC50 Virus B/GL/1739/54: Table 3, Vero cells, n at least 2, No effic. = no efficacy measured; for EC50: Influenza B virus, Vero, Table 4, controls, cutoff control values, determined over only 2 experiments
Protocol: The following MDT compounds were tested: MDT-1, MDT-3, MDT-10, MDT-11, MDT-12, MDT-13, MDT-14, MDT-15, MDT-16, MDT-22, MDT-23, MDT-24, MDT-26, MDT-27, MDT-28, MDT-29, MDT-30, MDT-31, MDT-32, MDT-33, MDT-34, MDT-40, MDT-41, MDT-42, MDT-43, MDT-44, MDT-45, MDT-46, MDT-47, MDT-48, MDT-49, MDT-50, MDT-51, MDT-53, MDT-56, MDT-57, MDT-58, MDT-59, MDT-60, MDT-61, MDT-62, MDT-63, MDT-65, MDT-67, MDT-68 and MDT-69. […] Amantadine and rimantadine are both adamantane derivatives.
Compound diluents were dimethyl sulfoxide (DMSO), Molecusol ((2-hydroxypropyl)-β-cyclodextrin; Sigma H107), propylene-glycol (PG) and deionized water. Diluents were used singly or in combination as necessary to dissolve the compounds.
The medium used for the cell lines was 1× Minimal Essential Medium (MEM) (Invitrogen) supplemented with 1% L-glutamine, 1% penicillin-streptomycin, 0.125% bovine serum albumin (BSA), and 1 μg/ml of TPCK-trypsin.
The viruses tested were influenza A/PR/8/34 (H1N1), influenza A/WS/33 (H1N1), influenza A/HK/8/68 (H3N2) and influenza B/GL/1739/54 (no H, N subtyping). Cells used were the Vero line of African green monkey, normal kidney cells. All viruses and cells were obtained from The American Type Culture Collection (Rockville, Md.). Cells were grown in an atmosphere of 4-6% CO2 at 34-38° C. in MEM with 5% fetal bovine serum (FBS), 2 mM glutamine, and 1% penicillin-streptomycin solution to maintain exponential growth.
The Vero cells were plated on Day 0. On Day 1, cells were infected with virus and incubated with various concentrations of test compounds. […] On Day 4 the cells were fixed and stained. […] Cell survival due to exposure to test compound was indicative of anti-viral activity.

[3] = test system: Vero cells
[4] = test system: influenza A/WS/33 (H1N1); test: microbe, parasite or virus in culture; type: cell-based, influenza A virus
[5] = test system: influenza A/HK/8/68 (H3N2); test: microbe, parasite or virus in culture; type: cell-based, influenza A virus
[6] = Table 3, Vero cells, H1N1, n at least 2, No effic. = no efficacy measured
[7] = Table 3, MDT compounds, No Tox. = no cytotoxicity measured
[8] = Influenza A virus, Vero, Table 4, controls, cutoff control values compiled through many experiments
[9] = Table 4, controls, No Tox = no cytotoxicity measured
[10] = Influenza A virus, H1N1, Vero, Table 4, controls, cutoff control values compiled through many experiments
[11] = Influenza A virus, H3N2, Vero, Table 4, controls, cutoff control values compiled through many experiments
[12] = Table 3, Vero cells, H1N1, n at least 2, No effic. = no efficacy measured, read-out: EC50 Virus A/PR/8/34
[13] = Table 3, Vero cells, H1N1, n at least 2, No effic. = no efficacy measured, read-out: EC50 Virus A/WS/33
[14] = Table 3, Vero cells, H3N2, n at least 2, No effic. = no efficacy measured

| SMILES | EC50 Virus A/PR/8/34 [1, 6] | EC50 Virus B/GL/1739/54 [2] | Cytotoxicity [3, 7] | EC50 Virus A/WS/33 [4, 6] | EC50 ([5]; Table 3, Vero cells, H3N2, n at least 2, No effic. = no efficacy measured, read-out: EC50 Virus A/HK/8/68) | EC50 [1, 8] | EC50 [2] | Cytotoxicity [3, 9] | EC50 [4, 10] | EC50 [5, 11] | EC50 [1, 12] | EC50 [4, 13] | EC50 Virus A/HK/8/68 [5, 14] |
| --- | --- | --- | --- | --- | --- | --- | --- | --- | --- | --- | --- | --- | --- |
| NC12CC3C4CC5CC3C(C1)C(C5)C4C2 [MDT-3, 4-aminodiamantane] | No Effic. | No Effic. | 10 or above μM | No Effic. | < 125 nM | – | – | – | – | – | – | – | – |
| CC(N)C12CC3CC(CC(C3)C1)C2.Cl (stereo not drawn) [Rimantadine, alpha-methyl-1-adamantanemethylamine hydrochloride, reference compound] | – | – | – | – | – | ≥ 1000 nM | ≥ 50000 nM | No Tox. | ≥ 50000 nM | ≤ 1000 nM | – | – | – |
| CC12CC3C4CC5(C)CC3C(C1)C(O)(C5)C4C2 [MDT-47, 4,9-dimethyl-1-hydroxydiamantane] | – | No Effic. | No Tox. | – | – | – | – | – | – | – | < 125 nM | 460 nM | No Effic. |
| CC(N)C12CC3C4CC5CC3C(C1)C(C5)C4C2 (stereo not drawn) [MDT-62, 4-(1-aminoethyl)diamantane] | – | No Effic. | 50 or above μM | – | – | – | – | – | – | – | 280 nM | 1940 nM | No Effic. |
| CCOC(=O)C1=C[C@@H](OC(CC)CC)[C@H](NC(C)=O)[C@@H](N)C1 [Oseltamivir, reference compound] | – | – | – | – | – | ≥ 10000 nM | ≥ 15000 nM | No Tox. | ≥ 5000 nM | ≤ 1000 nM | – | – | – |
| CC12CC3CC4C1CC1CC2C(N)(C3)C4(C)C1 (stereo not drawn) [MDT-43, 1,6-dimethyl-2-aminodiamantane] | – | No Effic. | 10 or above μM | – | – | – | – | – | – | – | 60 nM | 820 nM | No Effic. |
